In ChEMBL document CHEMBL1201862, “PubChem BioAssay data set” (2004):
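In this assay, cells in 96-well plates receive the compound at five concentrations for 48 hours. Endpoints are linearly interpolated between the surrounding concentrations. At the GI50, growth is halved.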 Activity calls are given as the source filed them. No stated cut-off is given here; in the data, active = GI50 up to about 1.1 µM and inactive = higher.

Legend:
Experiment in all cases: inhibition of tumour cell growth, NCI panel, 48 h
DLD-1 = test system: DLD-1
M19-MEL = test system: M19-MEL
XF498 = test system: XF498
786-0 = test system: 786-0
BT-549 = test system: BT-549
Hs-578T = test system: Hs-578T
MDA-MB-231 = test system: MDA-MB-231
LXFL 529 = test system: LXFL 529
RXF 631 = test system: RXF 631

Measured: GI50

O=C1NC(c2cccc3ccccc23)Nc2ccc(O)cc21 (stereo unspecified)
inactive: DLD-1 33.5 µM | M19-MEL 28.6 µM | XF498 24.7 µM

CC1CCC(O)/C=C/C(=O)OC(C)C(O)/C=C/C(=O)O1 (stereo unspecified)
inactive: 786-0 > 92.9 µM | BT-549 41.8 µM | Hs-578T > 100 µM | MDA-MB-231 > 100 µM

OCCOCn1nc(-c2ccccc2)nc1-c1cnccn1
inactive: 786-0 > 100 µM | BT-549 > 100 µM | MDA-MB-231 > 100 µM

CCCCC(NC(=O)CC)C(=O)O (stereo unspecified)
inactive: DLD-1 > 100 µM | M19-MEL > 100 µM | XF498 > 100 µM

Cn1ccc(C(=O)NCCN(CCNC(=O)c2ccn(C)c(=O)c2O)CCNC(=O)c2ccn(C)c(=O)c2O)c(O)c1=O
inactive: BT-549 > 100 µM | Hs-578T > 100 µM | MDA-MB-231 > 100 µM

C#CCn1c(=O)c(C#N)c(O)c2cc3ccccc3nc21
inactive: DLD-1 > 100 µM | M19-MEL > 100 µM | XF498 > 100 µM

O=C(NC1C(O)C(O)C(CO)OC1n1cc(F)c(=O)[nH]c1=O)OCc1ccccc1 (stereo unspecified)
inactive: DLD-1 > 100 µM | LXFL 529 > 100 µM | RXF 631 > 100 µM

NCCCCN(CCCN)Cc1ccccc1
inactive: 786-0 > 100 µM | BT-549 > 100 µM | Hs-578T > 100 µM | MDA-MB-231 > 100 µM

CCN1CCC(O)(/C=C/c2ccccc2C)C(C(=O)/C=C/c2ccccc2C)C1 (stereo unspecified)
inactive: BT-549 2.84 µM | Hs-578T 3.76 µM | MDA-MB-231 2.55 µM

CCN(CC)CCN(C(=O)c1ccc(F)cc1)c1ccccc1N
inactive: Hs-578T > 10 µM | MDA-MB-231 > 10 µM

Nc1ccc(C2(c3ccc(N)cc3)C3CC4CC(C3)CC2C4)cc1
inactive: BT-549 11.2 µM | MDA-MB-231 17.4 µM

CCN(CC)Cc1ccc2cccnc2c1O
inactive: BT-549 37.1 µM | Hs-578T 25.4 µM | MDA-MB-231 5.53 µM

O=C(NC1C2CC3CC(C2)CC1C3)c1cc(/C=C/c2ccccc2)nc(S)n1 (stereo unspecified)
inactive: DLD-1 > 100 µM | LXFL 529 > 100 µM | M19-MEL > 100 µM | RXF 631 > 100 µM | XF498 > 100 µM

CCCCC1=C(Br)C(=C(Br)Br)OC1=O
inactive: DLD-1 1.9 µM | M19-MEL 2.74 µM | XF498 7.62 µM

COC(=O)C1OC(Oc2cc(O)c3c(=O)cc(-c4ccc(O)cc4)oc3c2)C(O)C(O)C1O (stereo unspecified)
inactive: DLD-1 > 100 µM | M19-MEL > 100 µM | XF498 > 100 µM

c1ccc2c(c1)SC1Sc3ccccc3[S+]21 (stereo unspecified)
inactive: 786-0 25.9 µM | BT-549 20.1 µM | Hs-578T 64.9 µM | MDA-MB-231 23.7 µM
